Like-named read-outs stand apart in the source and are kept apart here.
Columns and labels:
[1] = test system: human hair follicle dermal papilla cells; assay: Evaluation of human hair follicle dermal papilla cell-activating action (Living Cell Count Reagent SF, ABS/hr); assay type: cell-based; settings: for cell-activating action vs 0.1% DMSO experimental section: 100 μmol/L
Method: After one-day culturing in the carbon dioxide incubator, the cells were transferred to a follicle dermal papilla cell proliferation medium in which isosaponarin was dissolved at final concentrations of 0.1 μmol/L, 10 μmol/L, and 1000 μmol/L. Then, the cells were cultured for one day and three days, and proliferation of each cell was compared using Living Cell Count Reagent SF. After the one-day and three-day culturing were completed, the supernatant culture was removed, and the cells were washed with PBS. After washing with PBS, a medium containing 10% Living Cell Count Reagent SF at 300 μL/well was added. The culture supernatant at 100 μL/well was transferred to another 96-well plate 30 and 90 minutes after the addition. Absorbance was measured at a microplate reader (measuring wavelength 450 nm, reference wavelength 595 nm). […] The experiment was carried out five times. A non-addition control section was used as a comparison control section of isosaponarin.
As a positive control, the same test was carried out also for the case of adding adenosine (Cat. No. 016-10493, distributed by Wako Pure Chemical Industries, Ltd.) at final concentration of 100 μmol/L and minoxidil (Cat. No. M4145-25MG, distributed by Sigma-Aldrich Japan Co., Ltd.) at final concentration of 30 μmol/L. Adenosine was dissolved in dimethyl sulfoxide (DMSO) and added to a test medium at final concentration of 0.1% DMSO. As a solvent control, 0.1% DMSO experimental section was provided. Minoxidil was dissolved in ethanol and added to a test medium at final concentration of 0.1% ethanol. […] Thus, a non-addition control section was used for a comparison control section of minoxidil.
Significance test was performed in the comparison experimental section. The test was carried out as Student T-test. It is determined that there is significance when P<0.05 (less than 5% if null hypothesis is true), as described in the figures.
A 100 mmol/L stock solution of adenosine (positive control substance) was prepared using DMSO as a solvent, and added to a test medium at final concentration of 100 μmol/L (0.1% DMSO experimental section was used as a solvent control). A 15 mmol/L stock solution of minoxidil was prepared with 50% ethanol, and added to a test medium at final concentration of 30 μmol/L. Since solvent (ethanol) concentration in this case is 0.2%, 0.2% ethanol experimental section was used as the control section.
Since the concentration of the solvent in the highest concentration of each test substance is 0.1% or less, it is determined that there is no influence of the solvent in the present test, and a non-addition control section was used as a reference in comparison of significant difference. The test was conducted as a Student T-test.
(§1) Thereafter, the cells were cultured for three days, and proliferation of each cell is compared using Living Cell Count Reagent SF. The experiment was carried out five times. After three-days culturing was completed, supernatant liquid of the culture was collected and a VEGF production amount of the supernatant was measured by ELISA kit as in Example 2.
Further, the supernatant was removed. The cells were washed with PBS, and a medium containing 10% Living Cell Count Reagent SF (300 μL/well) was then added. 100 μL per well of the culture supernatant 30 and 90 minutes after the addition was transferred to another 96-well plate and absorbance was measured with a microplate reader (measuring wavelength 450 nm, reference wavelength 595 nm).

[2] = test system: VEGF; assay: VEGF production promoting action in human hair follicle dermal papilla cells (ELISA of culture supernatant); assay type: cell-based
Method: An amount of VEGF in a culture supernatant treated with isosaponarin for three days on human hair follicle dermal papilla cells was measured using ELISA kit for (product name: Human VEGF Quantikine ELISA, Cat. No. DVE00, distributed by R&D Systems, Inc.) The supernatant at the time of three-day culturing in the above section (1-3) was used as the culture supernatant treated with isosaponarin for three days. Specifically, in the above section (1-3), in order to measure absorbance, the culture supernatant was removed three days after addition of isosaponarin. In an evaluation test of VEGF production promoting action, the culture supernatant was collected three days after the addition of isosaponarin, and the supernatant was used as a sample. The experiment was carried out five times.
Hereinafter, a method of measuring VEGF will be described in detail. For the measurement of VEGF, the stock solution was used without diluting the supernatant.
Procedure 1-1. On the basis of a VEGF standard stock solution (2000 pg/mL), VEGF standard solutions of 1000, 500, 250, 125, 62.5, 31.2, and 15.6 pg/mL were prepared using a reaction buffer.
Procedure 1-2. Each of the VEGF standard solutions and 200 μL of sample (culture supernatant) were added to a VEGF immobilized microplate in which 50 μL of dilution was added to each well, and allowed to react at room temperature for 2 hours (primary reaction).
Procedure 1-3. The solutions in the wells were removed and the wells were washed 3 times with washing solution.
Procedure 1-4. 200 μL of horseradish peroxidase-conjugated VEGF antibody solution was added to each well and allowed to react for 2 hours at room temperature (secondary reaction).
Procedure 1-5. The solutions in the wells were removed and the wells were washed 3 times with the washing solution.
Procedure 1-6. 200 μL of substrate solution was added to each well and allowed to react for 20 minutes at room temperature.
Procedure 1-7. 50 μL of reaction stop solution was added to each well. After one minute mixing in a plate mixer, absorbance of each well was measured with a plate reader (measuring wavelength 450 nm).
Procedure 1-8. From a standard curve, VEGF concentration in the sample was calculated.
A non-addition control section was used as a comparison control section of isosaponarin.
As a positive control, the same experiment was performed to the case of adding minoxidil having final concentration of 30 μmol/L as well. A non-addition control section was used as a comparison control section of minoxidil.
as §1

[3] = test system: FGF-7 gene; assay: FGF-7 gene expression in human hair follicle dermal papilla cells (real-time PCR); assay type: cell-based; settings: cultured for two hours
Method: Then, the cells are cultured for two hours, and total RNA was recovered and reverse transcribed into cDNA. Thereafter, FGF-7 gene expression was measured by real-time PCR. Using GAPDH gene as an internal reference, FGF-7 gene expression was calculated as a relative value of the negative control section. The experiment was carried out three times. Details of each procedure are shown below.
First, collection of total RNA from the cells and cDNA synthesis were carried out according to the steps of FastLane Cell RT-PCR kit.
Step 7-1. 500 μL per well of buffer FCW was added to the cells washed with PBS, and the buffer FCW was immediately removed and aspirated.
Step 7-2. 200 μL per well of the buffer FCP was added. After incubation for 5 minutes at room temperature (25° C.), FastLane lysate was transferred to a 96-well PCR tube. The tube was stored at −80° C. until the next cDNA synthesis.
Step 7-3. Lysate in Step 7-2 was dissolved at room temperature. 2 μL of gDNA Wipeout Buffer, 1μL of FastLane lysate and 11 μL of RNase-free water were added to a new PCR tube, caused to react for 5 minutes at 42° C., and then transferred immediately to ice. (In fact, an appropriate amount of master mix of gDNA Wipeout Buffer and RNase-free water was added to the tube containing lysate.)
Step 7-4. 6 μL of the reverse transcription reaction master mix was added to 14 μL of reaction solution obtained in Step 7-3 and incubated for 30 minutes at 42° C. (1 μL of Quantiscript Reverse Transcriptase, 4 μL of Quantiscript RT Buffer, 1 μL of RT Primer Mix/tube).
Step 7-5. The reaction solution was treated for 3 minutes at 95° C., to inactivate the reverse transcriptase. […]
The relative expression level of each gene was calculated as follows. From an intersection of an amplification curve of each gene and a threshold line of each gene, a Ct value (the number of PCR cycles) was calculated. ΔCt value is obtained by subtracting a Ct value of the internal reference GAPDH gene from a Ct value of the target gene (Ct values (target gene)−Ct (GAPDH2)=ΔCt value). […]

[4] = test system: human hair follicle dermal papilla cells; assay: Cytotoxicity test using human hair follicle dermal papilla cells; settings: three-day culture; for concentration showing toxicity to human hair follicle dermal papilla cells: FIGS. 5-7
Method: (§2) Human hair follicle dermal papilla cells (Cat. No. CA60205a, Lot No. 2548, derived from person, distributed by Toyobo Co., Ltd.), which are widely used in efficacy evaluation of a hair restoration agent, were used as test cells. The human hair follicle dermal papilla cells were cultured in a carbon dioxide incubator (5% CO2, 37° C.) using a follicle dermal papilla cell proliferation medium (Cat. No. TMTPGM-250, distributed by Toyobo Co., Ltd.) A flask used for the culture was coated with collagen I before use. For cell passage, cells were separated from the flask using a follicle dermal papilla cell dedicated subculture set (Cat. No. CA090K, distributed by Toyobo Co., Ltd.)
(§3) The human hair follicle dermal papilla cells were seeded in a collagen I-coated 96-well plate at 5×10^3 cells/well (0.1 mL/well in this test). After one-day culturing (50% confluent) in the carbon dioxide incubator (5% CO2, 37° C.), the cells were transferred to a test medium containing isosaponarin, and then cultured for three days. Cell proliferation was compared using Living Cell Count Reagent SF (Cat. No. 07553, distributed by Nacalai Tesque, Inc.) In consideration of possible influence on absorbance by precipitates adhering to the cells in absorbance measurement in living cell count, the culture supernatant was removed after the end of the three-day culturing, and the cells were washed with a phosphate-buffered saline (PBS). After washing with PBS, 100pL per well of a medium containing 10% of Living Cell Count Reagent SF was added. Absorbance (measurement wavelength 450 nm, reference wavelength 595 nm) of the culture supernatant was measured 30 minutes and 90 minutes after the addition. An amount of change (ABS/hr) in absorbance ABS per hour was calculated from values at 90 minutes and 30 minutes. The experiment was carried out three times.

[5] = test system: human hair follicle dermal papilla cells; assay: Evaluation of human hair follicle dermal papilla cell-activating action (Living Cell Count Reagent SF, ABS/hr); assay type: cell-based; settings: Example 7, three days
[6] = test system: human hair follicle dermal papilla cells
Method: as §2, §3

[7] = Example 7, 0.1 μmol/L, three days

`Nc1ncnc2c1ncn2[C@@H]1O[C@H](CO)[C@@H](O)[C@H]1O` [adenosine, reference compound] was tested, and the “cell-activating action vs 0.1% DMSO experimental section” value ([1]; Example 1, three-day processing period) was “more significant cell-activating action”, the “cell-activating action vs 0.1% DMSO experimental section” value ([1]; Example 7, three days, FIG. 8) was “more significant cell-activating action” and the “amount of VEGF vs 0.1% DMSO experimental section” value ([2]; Example 7, 100 μmol/L, three days, FIG. 9) was “significantly increased the amount of VEGF on human hair follicle dermal papilla cell slightly more”. For the same compound, the “FGF-7 gene expression vs 0.1% DMSO experimental section” value ([3]; 100 μmol/L, FIG. 10) was “more significantly elevated FGF-7 gene expression”.
`O=c1cc(-c2ccc(O)cc2)oc2cc(O)cc(O)c12` [apigenin, 2-(4-hydroxyphenyl)-5-hydroxy-7-hydroxy-4H-1-benzopyran-4-one] was tested, and the “concentration showing toxicity to human hair follicle dermal papilla cells” value (shortened to “concentration showing toxicity”) [4] was ≥ 80 µM, the “amount of VEGF vs non-addition control section” value ([2]; Example 7, 0.001 μmol/L to 0.01 μmol/L, three days, FIG. 9) was “increased more significantly” and the “amount of VEGF vs non-addition control section” value [2, 7] was “no significance”. The “cell-activating action vs non-addition control section” value ([5]; 0.001 μmol/L to 1 μmol/L, FIG. 8) was “more significant cell-activating action” and the “cell-activating action vs non-addition control section” value ([5]; 10 μmol/L) was “no significance”.
`COC(=O)/C=C/c1ccc(O)c(O)c1` [caffeic acid methyl ester] was tested, and the “concentration showing toxicity” value [4] was ≥ 16 µM, the “amount of VEGF vs non-addition control section” value [2, 7] was “did not show any significance” and the “amount of VEGF vs non-addition control section” value ([2]; Example 7, 1 μmol/L, three days, FIG. 9) was “increased more significantly”. For the same compound, the “amount of VEGF vs non-addition control section” value ([2]; Example 7, 10 μmol/L, three days) was “did not show any significance”.
For `O=c1cc(-c2ccc(O[C@@H]3O[C@H](CO)[C@@H](O)[C@H](O)[C@H]3O)cc2)oc2cc(O)c([C@@H]3O[C@H](CO)[C@@H](O)[C@H](O)[C@H]3O)c(O)c12` [isosaponarin, 4′-(β-D-glucopyranosyloxy)-5,7-dihydroxy-6-β-D-glucopyranosylflavone], the “cell-activating action vs non-addition control section” value ([1]; Example 1, 0.1 μmol/L to 1000 μmol/L, one-day processing period, FIG. 2) was “slightly more significant cell-activating action”, the “cell-activating action vs non-addition control section” value ([1]; Example 1, 0.1 μmol/L to 1000 μmol/L, three-day processing period, FIG. 3) was “more significant cell-activating action” and the “cell-activating action relative to the action in the case of treating with minoxidil” value ([1]; Example 1, three-day processing period, minoxidil 30 μmol/L) was “about three times”. For the same compound, the “concentration showing no toxicity to human hair follicle dermal papilla cells” value ([4]; FIG. 1) was ≤ 1000 µM and the “amount of VEGF vs non-addition control section” value ([2]; Example 2, 1000 μmol/L, treated for three days, FIG. 4) was “significantly increased”.
For `Nc1cc(N2CCCCC2)nc(N)[n+]1[O-]` [minoxidil, 6-(1-piperidinyl)-2,4-pyrimidinediamine-3-oxide, reference compound], the “cell-activating action vs non-addition control section” value ([1]; Example 1, 30 μmol/L, one-day processing period) was “slightly more significant cell-activating action”, the “cell-activating action vs non-addition control section” value ([1]; Example 1, 30 μmol/L, three-day processing period) was “more significant cell-activating action” and the “amount of VEGF vs non-addition control section” value ([2]; Example 2, 30 μmol/L, treated for three days, FIG. 4) was “significantly increased”. The “amount of VEGF vs 0.2% ethanol experimental section” value ([2]; Example 7, 30 μmol/L, three days, FIG. 9) was “more significantly increased” and the “cell-activating action vs 0.2% ethanol experimental section” value ([5]; 30 μmol/L, FIG. 8) was “more significant cell-activating action”.
With coumaric acid the “cell-activating action vs non-addition control section” value ([5]; 0.01 μmol/L) was “did not show significance”, the “cell-activating action vs non-addition control section” value ([5]; 0.1 μmol/L, FIG. 8) was “more significant cell-activating action” and the “cell-activating action vs non-addition control section” value ([5]; 10 μmol/L) was “did not show significance”. For the same compound, the “concentration showing toxicity” value [6] was ≥ 2000 µM, the “FGF-7 gene expression vs non-addition control section” value ([3]; 0.001 μmol/L, FIG. 10) was “more significantly elevated” and the “FGF-7 gene expression vs non-addition control section” value ([3]; 0.01 μmol/L) was “did not show any significance”.

— patent US11033473B2, “Hair restoration/growth stimulating agent” (Kinjirushi Co., Ltd., priority 2015, dated 2021)
